Data: paper PMC9518264, “Design and synthesis of novel quinazolinone-based derivatives as EGFR inhibitors with antitumor activity” (Journal of Enzyme Inhibition and Medicinal Chemistry, 2022)

Columns and labels:
HL-60(TB) = assay: cells; type: cell-based
NCI-H460 = assay: cells; type: cell-based
HT29 = assay: cells; type: cell-based
SF-295 = assay: cells; type: cell-based
M14 = assay: cells; type: cell-based
MDA-MB-435 = assay: cells; type: cell-based
UACC-62 = assay: cells; type: cell-based
OVCAR-8 = assay: cells; type: cell-based
CAKI-1 = assay: cells; type: cell-based
RXF 393 = assay: cells; type: cell-based
SN12C = assay: cells; type: cell-based
UO-31 = assay: cells; type: cell-based
PC-3 = assay: cells; type: cell-based
EGFR = EGFR (Homo sapiens, UniProt P00533); assay: In vitro EGFR kinase inhibitory assay (Kinase-Glo Max luminescence kit); type: biochemical
EGFR, sequence (P00533 669-1210): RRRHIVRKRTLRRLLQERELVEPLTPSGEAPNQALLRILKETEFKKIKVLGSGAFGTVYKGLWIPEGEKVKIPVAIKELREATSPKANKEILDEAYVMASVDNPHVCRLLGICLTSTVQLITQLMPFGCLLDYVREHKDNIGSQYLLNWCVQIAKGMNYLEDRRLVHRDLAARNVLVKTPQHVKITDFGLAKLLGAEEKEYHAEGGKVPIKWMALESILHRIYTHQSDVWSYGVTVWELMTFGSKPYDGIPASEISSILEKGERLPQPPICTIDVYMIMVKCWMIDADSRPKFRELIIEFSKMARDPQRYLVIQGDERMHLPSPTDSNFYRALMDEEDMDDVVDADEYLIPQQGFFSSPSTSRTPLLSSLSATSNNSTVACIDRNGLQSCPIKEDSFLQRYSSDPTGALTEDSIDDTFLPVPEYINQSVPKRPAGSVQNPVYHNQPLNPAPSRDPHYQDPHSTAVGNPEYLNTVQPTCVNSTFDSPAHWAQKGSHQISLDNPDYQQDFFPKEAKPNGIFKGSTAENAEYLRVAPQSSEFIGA

HS 578T cells [1] = assay: Annexin V/PI dual staining apoptosis assay; type: cell-based, human
caspase-3 = assay: Caspase-3 activation (ELISA) in breast HS 578T cancer cell line; type: cell-based, human
Method: Apoptosis is triggered by the activation of caspases, particularly caspase-3, which is an […] caspase responsible for apoptosis. Therefore, the induction of apoptosis by compound 6d was examined by the evaluation of caspase-3 activation in breast HS 578T cancer cell line. The effect of erlotinib as well as untreated cell line was used as positive and negative control, respectively. […] . […]
incubated for 15 minutes in the dark at room temperature. FacsCalibur was used to assess cell fluorescence after incubation (BD Biosciences, USA). The results were represented using dot-plot graphs.
1.1.5. Caspase-3 enzyme assay
The level of the apoptotic marker caspase-3 was measured using Invitrogen ELISA Kit Catalog # KHO1091. The procedure of the used kit was performed according to the manufacturer’s instructions. Let all components to reach room temperature before use. Gently combine all liquid reagents prior to use. Add 100 μL of the standard diluent buffer to the zero standard wells. Add 100 μL of standards and controls or diluted samples to the appropriate microtiter wells. Incubate for 2 h at room temperature. Pipette 100 μL of Caspase-3 (Active) detection antibody solution into each well. […] Read the absorbance of each well at 450 nm. Read the plate within 2 h after adding the stop solution. […] Read the concentrations for unknown samples and controls from the standard curve.

HS 578T cells [2] = assay: Cell cycle analysis by DNA flow cytometry (propidium iodide)
Method: Flow cytometry was used to analyse the cell cycle using ab139418 propidium iodide flow cytometry kit/BD (Abcam, Cambridge, UK), as directed by the manufacturer guidelines.
The cells were washed twice with ice-cold phosphate buffer saline (PBS) and collected by centrifugation.
(v/v) ethanol, washed with PBS, and re-suspended with 0.1 mg/mL RNase to digest cellular RNA and thus minimize stained RNA in the background. The cells were next stained with PI, a fluorescent molecule that may bind to nucleic acid, at a concentration of 40 mg/mL. In cells, PI attaches to DNA in proportion to its amount. Because the DNA content of cells at different stages of the cell cycle differs, the fluorescence intensity can be used to assess the stage of cell growth. FacsCalibur (BD Biosciences, USA) was used to estimate cell fluorescence, which was then examined using Cell-Quest software (Becton Dickinson).

MDA-MB-468 = assay: NCI 60 cell line antiproliferative screening (SRB), Breast cancer
[3] = 24 h at 2.17 µM, vs untreated control

Compound: O=C(CSc1nc2ccccc2c(=O)n1-c1ccc(Cl)cc1)NN=Cc1ccc(Oc2ccc(Cl)cc2)cc1 [6d, N'-(4–(4-chlorophenoxy)benzylidene)-2-((3–(4-chlorophenyl)-4-oxo-3,4-dihydroquinazolin-2-yl)thio)acetohydrazide]
- TGI (HL-60(TB); HL-60(TB), 5 doses): 37.0 µM
- GI50 (HL-60(TB); Homo sapiens, HL-60): 16 µM
- inhibition at 10 µM (HL-60(TB); Homo sapiens, HL-60, read-out: growth inhibition % (GI%)): < 15%
- CC50 (HL-60(TB); Homo sapiens, HL-60(TB), 5 doses, read-out: LC50 (the source's name)): 85.7 µM
- GI50 (NCI-H460; Homo sapiens, NCI-H460): 0.789 µM
- inhibition at 10 µM (NCI-H460; Homo sapiens, NCI-H460, read-out: growth inhibition % (GI%)): > 100%
- LC50 (concentration killing 50% of cells) (NCI-H460; Homo sapiens, NCI-H460, 5 doses): 7.78 µM
- TGI (NCI-H460; NCI-H460, 5 doses): 2.6 µM
- TGI (HT29; HT29, 5 doses): 11.1 µM
- GI50 (HT29; Homo sapiens, HT-29): 2.14 µM
- inhibition at 10 µM (HT29; Homo sapiens, HT-29, read-out: growth inhibition % (GI%)): 98.2%
- LC50 (concentration giving 50% net cell kill) (HT29; Homo sapiens, HT-29, HT29, 5 doses): > 100 µM
- GI50 (SF-295; Homo sapiens, SF-295): 3.61 µM
- inhibition at 10 µM (SF-295; Homo sapiens, SF-295, read-out: growth inhibition % (GI%)): 35.3%
- CC50 (SF-295; Homo sapiens, SF-295, 5 doses, read-out: LC50 (the source's name)): 36.4 µM
- TGI (SF-295; SF-295, 5 doses): 13.3 µM
- GI50 (M14; Homo sapiens, M14): 1.58 µM
- inhibition at 10 µM (M14; Homo sapiens, M14, read-out: growth inhibition % (GI%)): > 100%
- CC50 (M14; Homo sapiens, M14, 5 doses, read-out: LC50 (the source's name)): 7.58 µM
- TGI (M14; M14, 5 doses): 3.47 µM
- GI50 (MDA-MB-435; Homo sapiens, MDA-MB-435): 1.93 µM
- inhibition at 10 µM (MDA-MB-435; Homo sapiens, MDA-MB-435, read-out: growth inhibition % (GI%)): 75%
- CC50 (MDA-MB-435; Homo sapiens, MDA-MB-435, 5 doses, read-out: LC50 (the source's name)): 13 µM
- TGI (MDA-MB-435; MDA-MB-435, 5 doses): 4.56 µM
- GI50 (UACC-62; Homo sapiens, UACC-62): 1.59 µM
- inhibition at 10 µM (UACC-62; Homo sapiens, UACC-62, read-out: growth inhibition % (GI%)): 99.6%
- CC50 (UACC-62; Homo sapiens, UACC-62, 5 doses, read-out: LC50 (the source's name)): 6.38 µM
- TGI (UACC-62; UACC-62, 5 doses): 3.18 µM
- GI50 (OVCAR-8; Homo sapiens, OVCAR-8): 2.41 µM
- inhibition at 10 µM (OVCAR-8; Homo sapiens, OVCAR-8, read-out: growth inhibition % (GI%)): 86.6%
- CC50 (OVCAR-8; Homo sapiens, OVCAR-8, 5 doses, read-out: LC50 (the source's name)): > 100 µM
- TGI (OVCAR-8; OVCAR-8, 5 doses): 6.56 µM
- TGI (CAKI-1; CAKI-1, 5 doses): 12.0 µM
- GI50 (CAKI-1; Homo sapiens, CAKI-1): 3.06 µM
- inhibition at 10 µM (CAKI-1; Homo sapiens, CAKI-1, read-out: growth inhibition % (GI%)): 67%
- CC50 (CAKI-1; Homo sapiens, CAKI-1, 5 doses, read-out: LC50 (the source's name)): 35.4 µM
- GI50 (RXF 393; Homo sapiens, RXF 393): 1.7 µM
- inhibition at 10 µM (RXF 393; Homo sapiens, RXF 393, read-out: growth inhibition % (GI%)): > 100%
- CC50 (RXF 393; Homo sapiens, RXF 393, 5 doses, read-out: LC50 (the source's name)): 5.81 µM
- TGI (RXF 393; RXF 393, 5 doses): 3.14 µM
- TGI (SN12C; 5 doses): 4.14 µM
- GI50 (SN12C; Homo sapiens): 1.74 µM
- CC50 (SN12C; Homo sapiens, 5 doses, read-out: LC50 (the source's name)): 9.84 µM
- inhibition at 10 µM (SN12C; Homo sapiens, read-out: growth inhibition % (GI%)): 54.8%
- GI50 (UO-31; Homo sapiens, UO-31): 7.47 µM
- inhibition at 10 µM (UO-31; Homo sapiens, UO-31, read-out: growth inhibition % (GI%)): < 15%
- CC50 (UO-31; Homo sapiens, UO-31, 5 doses, read-out: LC50 (the source's name)): 47.1 µM
- TGI (UO-31; UO-31, 5 doses): 21.1 µM
- GI50 (PC-3; Homo sapiens, PC-3): 2.58 µM
- inhibition at 10 µM (PC-3; Homo sapiens, PC-3, read-out: growth inhibition % (GI%)): 99.2%
- CC50 (PC-3; Homo sapiens, PC-3, 5 doses, read-out: LC50 (the source's name)): > 100 µM
- TGI (PC-3; PC-3, 5 doses): 9.32 µM
- IC50 (EGFR): 0.069 ± 0.004 µM
- increase in total apoptosis compared to the control (HS 578T cells [1]): 16.74 fold
- Apoptosis Early (HS 578T cells [1]; IC50 concentration, 24 h): 19.24%
- Apoptosis Late (HS 578T cells [1]; IC50 concentration, 24 h): 13.45%
- Apoptosis Total (HS 578T cells [1]; IC50 concentration, 24 h): 39.02%
- Necrosis (HS 578T cells [1]; IC50 concentration, 24 h): 6.33%
- increase of caspase-3 level compared to negative control (caspase-3): 10.75 fold
- phase of cell cycle arrest (HS 578T cells [2]): G1/S phase
- increase of cell population in the pre-G1 phase (HS 578T cells [2]; 24 h at 2.17 µM, vs control): 16.74 fold
- decrease in the cell population at the G2/M phase (HS 578T cells [2]; [3]): 52%
- increase of proportion of cells in G0-G1 phase (HS 578T cells [2]; [3]): 1.12 fold
- increase of proportion of cells in S phase (HS 578T cells [2]; [3]): 1.12 fold
- GI50 (MDA-MB-468; Homo sapiens, MDA-MB-468): 2.08 µM
- CC50 (MDA-MB-468; Homo sapiens, MDA-MB-468, read-out: LC50): 18.8 µM
- inhibition at 10 µM (MDA-MB-468; Homo sapiens, MDA-MB-468, read-out: growth inhibition % (GI%)): > 100%
- TGI (MDA-MB-468; MDA-MB-468, 5 doses): 5.08 µM
